System: rats following moderate fluid percussion injury
Assay: Mortality after moderate fluid percussion injury
Type: in vivo, Male Sprague-Dawley rats
Conditions: 1 mg/kg i.v. 30 min following moderate fluid percussion injury; died before the end of the study; saline 21.4% and 37.5%
Procedure: Rats were anesthetized with sodium pentobarbital (70 mg/kg i.p.), intubated, and implanted with femoral venous and arterial catheters. Brain temperature was assessed indirectly through a thermister in the temporalis muscle. Body temperature was maintained through a feedback-controlled heating blanket. Blood pressure was continuously monitored, and arterial blood gases analyzed periodically. After the animal was placed in a stereotaxic frame, the scalp and temporal muscle were reflected, and a small craniotomy (5 mm) located midway between the lambda and bregma sutures over the left parietal cortex allowed insertion of a Leur-Loc that is cemented in place. The fluid-percussion head injury device, manufactured by the Medical College of Virginia, consists of a plexiglass cylindrical reservoir filled with isotonic saline; one end includes a transducer that is mounted and connected to a 5 mm tube that attaches through a male Leur-Loc fitting to the female Leur-Loc cemented at the time of surgery. A pendulum strikes a piston at the opposite end of the device, producing a pressure pulse of approximately 22 msec duration, leading to deformation of underlying brain. The degree of injury is related to the pressure pulse, expressed in atmospheres (atm): 2.6 atm in our laboratory produces a moderate injury with regard to neurological and histological deficit. Sham (control) animals undergo anesthesia and surgery without fluid percussion brain injury. […]
Continuous variables compared across groups were examined using an analysis of variance (ANOVA) followed by Bonferroni correction (rightin reflex). Continuous variables subjected to repeated measurements over a period of time (cardiovascular and core temperature measurements) were analyzed using a repeated measurements ANOVA followed by Tukey's pairwise comparison at each time point. Ordinal measurements (composite neurological scores) were evaluated using the non-parametric Kruskal-Wallis ANOVA with individual, non-parametric Mann-Whitney U-tests. […]

`O=C1NC2(CCCCC2)C(=O)N2CCC[C@@H]12` [Compound 2a, Cyclo[(1-Amino-1-Cyclohexane-Carboxylic Acid)-Pro]] gave a mortality rate of 25%.
